The nature of series [1]: Single dose oral pharmacokinetic study. The settings on record: mouse, Mice oral PK @30 mg/kg, plasma, vehicle 10% Solutol+20% PEG; for AUC(0-t): read-out: AUC0-t; for Cmax: read-out: Cmax. Type of series: in vivo. The procedure:
The test item was administered through oral route to animals (rat/mice) at 30 mg/kg dose in a suitable vehicle (10% Solutol+20% PEG) at 10 ml/kg dose volume. Blood samples (˜50 μL at each time point) were collected from retro-orbital plexus using K3 EDTA as anticoagulant in eppendorf tubes at defined time intervals 30 minutes, 1 hour, 2 hour, 4 hour, 8 hour, 24 hour & 48 hour under light ether anaesthesia. The samples were centrifuged at 3500×g to separate plasma and stored at −80° C. until analysis. Plasma 25 μl for Mice were processed as per described in sample preparation.
Standard solutions of the test compound 1 mg/mL solutions were prepared in DMSO and further dilutions were made in methanol. […] To the test compound plasma extraction was carried out using Acetonitrile precipitation. After reconstitution with solvent (50% Acetonitrile in Buffer) samples were analyzed by LCMSMS to get the concentrations to calculate PK Parameters.

The nature of series [2]: Cyto-toxicity (MTT assay). It counts as cell-based. The procedure:
On day 1 calculate the number of cells required for the assay and seed 3×10^4 cells in 200 μl per well. Weigh the compound and dissolve it in DMSO to get 10 mM stock which is further diluted to 3 mM and 1 mM. […] Add DMSO to controls in a way to obtain final concentration of solvent that is not greater than 1%. Incubate for 4 days in 5% CO2 incubator at 37° C. On day 4, 100 μl of medium was removed from each well without disturbing the cells. Add 10 μl of MTT reagent and incubate for 4 hours at 5% CO2 incubator at 37° C. for formation of crystals. Add 200 μl of 0.1N acidic isopropanol to dissolve the crystals and read the plate at 590 nm. The values are mentioned in below Table-3 and Table-3A.

The structures appear in SMILES notation.

As a reminder, the Cmax is the peak of the concentration-time curve. For orientation: viability means a per cent measure of how many cells are alive, often set against a control. Lower therefore signals more harm to the cells. For `CC(C)C1=C2[C@H]3CC[C@@H]4[C@@]5(C)CC[C@H](OC(=O)[C@H]6C[C@@H](C(=O)O)C6(C)C)C(C)(C)[C@@H]5CC[C@@]4(C)[C@]3(C)CC[C@@]2(NC(=O)C(C)(C)NC(=O)C2(c3ccc(Cl)cc3)CC2)CC1=O` [Example 2, (1R,3S)-3-((((3aR,5aR,5bR,7aR,9S,11aR,11bR,13aS)-3a-(2-(1-(4-chlorophenyl)cyclopropane-1-carboxamido)-2-methylpropanamido)-1-isopropyl-5a,5b,8,8, 11a-pentamethyl-2-oxo-3,3a,4,5,5a,5b,6,7,7a,8,9,10,11,11a,11b,12,13,13a-octadecahydro-2H-cyclopenta[a]chrysen-9-yl)oxy)carbonyl)-2,2-dimethylcyclobutane-1-carboxylic acid], in series [1], the AUC(0-t) came out at 166 µg·h/mL and the Cmax was 13200 ng/mL. In series [2], this compound returned a viability at 4 days, 0.01 µM of 42%; a viability at 4 days, 0.1 µM of 9%; a viability at 4 days, 1 µM of 8%.
Turning to `CC(C)C1=C2[C@H]3CC[C@@H]4[C@@]5(C)CC[C@H](OC(=O)[C@H]6C[C@@H](C(=O)O)C6(C)C)C(C)(C)[C@@H]5CC[C@@]4(C)[C@]3(C)CC[C@@]2(NC(=O)C(C)(C)NC(=O)c2ccccc2)CC1=O` [Example 3, (1R,3S)-3-((((3aR,5aR,5bR,7aR,9S,11aR,11bR,13aS)-3a-(2-benzamido-2-methylpropanamido)-1-isopropyl-5a,5b,8,8,11a-pentamethyl-2-oxo-3,3a,4,5,5a, 5b,6,7,7a,8,9,10,11,11a,11b,12,13,13a-octadecahydro-2H-cyclopenta[a]chrysen-9-yl)oxy)carbonyl)-2,2-dimethylcyclobutane-1-carboxylic acid], in series [1], the AUC(0-t) stood at 545 µg·h/mL and the Cmax was found to be 29600 ng/mL. Moreover, in series [2], the viability at 4 days, 0.01 µM came to 32%; the viability at 4 days, 0.1 µM amounted to 13%; the viability at 4 days, 1 µM stood at 7%.
Taken in the same sequence, the figures for `CC(C)C1=C2[C@H]3CC[C@@H]4[C@@]5(C)CC[C@H](OC(=O)[C@H]6C[C@@H](C(=O)O)C6(C)C)C(C)(C)[C@@H]5CC[C@@]4(C)[C@]3(C)CC[C@@]2(NC(=O)C(C)(C)NC(=O)c2ccc(Cl)c(Cl)c2)CC1=O` [Example 4, (1R,3S)-3-((((3aR,5aR,5bR,7aR,9S,11aR,11bR,13aS)-3a-(2-(3,4-dichlorobenzamido)-2-methylpropanamido)-1-isopropyl-5a,5b,8,8,11a-pentamethyl-2-oxo-3,3a,4,5,5a,5b,6,7,7a,8,9,10,11,11a,11b,12,13,13a-octadecahydro-2H-cyclopenta[a]chrysen-9-yl)oxy)carbonyl)-2,2-dimethylcyclobutane-1-carboxylic acid] were 185 µg·h/mL, 8840 ng/mL, 20%, 12% and 9%.
For the compound `CC(C)C1=C2[C@H]3CC[C@@H]4[C@@]5(C)CC[C@H](OC(=O)[C@H]6C[C@@H](C(=O)O)C6(C)C)C(C)(C)[C@@H]5CC[C@@]4(C)[C@]3(C)CC[C@@]2(NC(=O)C(C)(C)NC(=O)c2cnccn2)CC1=O` [Example 5, (1R,3S)-3-((((3aR,5aR,5bR,7aR,9S,11aR,11bR,13aS)-1-isopropyl-5a,5b,8,8,11a-pentamethyl-3a-(2-methyl-2-(pyrazine-2-carboxamido)propanamido)-2-oxo-3,3a,4,5,5a,5b,6,7,7a,8,9,10,11,11a,11b,12,13,13a-octadecahydro-2H-cyclopenta[a]chrysen-9-yl)oxy)carbonyl)-2,2-dimethylcyclobutane-1-carboxylic acid], in series [1], the AUC(0-t) was determined as 289 µg·h/mL and the Cmax stood at 26000 ng/mL. Besides, in series [2], the viability at 4 days, 0.01 µM worked out at 74%; the viability at 4 days, 0.1 µM amounted to 35%; the viability at 4 days, 1 µM is 4%.
Turning to `Cc1cc(C(=O)NC(C)(C)C(=O)N[C@@]23CC[C@]4(C)[C@H](CC[C@@H]5[C@@]6(C)CC[C@H](OC(=O)[C@H]7C[C@@H](C(=O)O)C7(C)C)C(C)(C)[C@@H]6CC[C@]54C)C2=C(C(C)C)C(=O)C3)c(C)o1` [Example 33, (1R,3S)-3-((((3aR,5aR,5bR,7aR,9S,11aR,11bR,13aS)-3a-(2-(2,5-dimethylfuran-3-carboxamido)-2-methylpropanamido)-1-isopropyl-5a,5b,8,8,11a-pentamethyl-2-oxo-3,3a,4,5,5a,5b,6,7,7a,8,9,10,11,11a,11b,12,13,13a-octadecahydro-2H-cyclopenta[a]chrysen-9-yl)oxy)carbonyl)-2,2-dimethylcyclobutane-1-carboxylic acid], in series [1], the AUC(0-t) was 231 µg·h/mL and the peak concentration (Cmax) was found to be 11400 ng/mL.
As for `CC(C)C1=C2[C@H]3CC[C@@H]4[C@@]5(C)CC[C@H](OC(=O)[C@H]6C[C@@H](C(=O)O)C6(C)C)C(C)(C)[C@@H]5CC[C@@]4(C)[C@]3(C)CC[C@@]2(NC(=O)C2(NC(=O)c3cccnc3N3CCOCC3)CCC2)CC1=O` [Example 45, (1R,3S)-3-((((3aR,5aR,5bR,7aR,9S,11aR,11bR,13aS)-1-isopropyl-5a,5b,8,8,11a-pentamethyl-3a-(1-(2-morpholinonicotinamido)cyclobutane-1-carboxamido)-2-oxo-3,3a,4,5,5a,5b,6,7,7a,8,9,10,11,11a,11b,12,13,13a-octadecahydro-2H-cyclopenta[a]chrysen-9-yl)oxy)carbonyl)-2,2-dimethylcyclobutane-1-carboxylic acid], in series [1], the AUC(0-t) came to 214 µg·h/mL and the Cmax was determined as 21200 ng/mL.
Taken in the same sequence, the figures for `CC(C)C1=C2[C@H]3CC[C@@H]4[C@@]5(C)CC[C@H](OC(=O)[C@H]6C[C@@H](C(=O)O)C6(C)C)C(C)(C)[C@@H]5CC[C@@]4(C)[C@]3(C)CC[C@@]2(NC(=O)C(C)(C)NC(=O)Cc2ccc(Cl)cc2)CC1=O` [Example 53, (1R,3S)-3-((((3aR,5aR,5bR,7aR,9S,11aR,11bR,13aS)-3a-(2-(2-(4-chlorophenyl)acetamido)-2-methylpropanamido)-1-isopropyl-5a,5b,8,8,11a-pentamethyl-2-oxo-3,3a,4,5,5a,5b,6,7,7a,8,9,10,11,11a,11b,12,13,13a-octadecahydro-2H-cyclopenta[a]chrysen-9-yl)oxy)carbonyl)-2,2-dimethylcyclobutane-1-carboxylic acid] were 57.8 µg·h/mL and 9750 ng/mL.
For `CC(C)C1=C2[C@H]3CC[C@@H]4[C@@]5(C)CC[C@H](OC(=O)[C@H]6C[C@@H](C(=O)O)C6(C)C)C(C)(C)[C@@H]5CC[C@@]4(C)[C@]3(C)CC[C@@]2(NC(=O)C(C)(C)NC(=O)c2cnn3cccnc23)CC1=O` [Example 54, (1R,3S)-3-((((3aR,5aR,5bR,7aR,9S,11aR,11bR,13aS)-1-isopropyl-5a,5b,8,8,11a-pentamethyl-3a-(2-methyl-2-(pyrazolo[1,5-a]pyrimidine-3-carboxamido)propanamido)-2-oxo-3,3a,4,5,5a,5b,6,7,7a,8,9,10,11,11a,11b,12,13,13a-octadecahydro-2H-cyclopenta[a]chrysen-9-yl)oxy)carbonyl)-2,2-dimethylcyclobutane-1-carboxylic acid], in series [1], the AUC(0-t) was determined as 402 µg·h/mL and the Cmax was determined as 29200 ng/mL.
Taken in the same sequence, the figures for `CC(C)C1=C2[C@H]3CC[C@@H]4[C@@]5(C)CC[C@H](OC(=O)[C@H]6C[C@@H](C(=O)O)C6(C)C)C(C)(C)[C@@H]5CC[C@@]4(C)[C@]3(C)CC[C@@]2(NC(=O)C(C)(C)NCc2ccc(Cl)cc2)CC1=O` [Example 68, (1R,3S)-3-((((3aR,5aR,5bR,7aR,9S,11aR,11bR,13aS)-3a-(2-((4-chlorobenzyl)amino)-2-methylpropanamido)-1-isopropyl-5a,5b,8,8,11a-pentamethyl-2-oxo-3,3a,4,5,5a,5b,6,7,7a,8,9,10,11,11a,11b,12,13,13a-octadecahydro-2H-cyclopenta[a]chrysen-9-yl)oxy)carbonyl)-2,2-dimethylcyclobutane-1-carboxylic acid] were 272 µg·h/mL and 20000 ng/mL.
Taken in the same sequence, the figures for `CC(C)C1=C2[C@H]3CC[C@@H]4[C@@]5(C)CC[C@H](OC(=O)[C@H]6C[C@@H](C(=O)O)C6(C)C)C(C)(C)[C@@H]5CC[C@@]4(C)[C@]3(C)CC[C@@]2(NC(=O)C(C)(C)NC(=O)c2ccc(Cl)cn2)CC1=O` [Example 70, (1R,3S)-3-((((3aR,5aR,5bR,7aR,9S,11aR,11bR,13aS)-3a-(2-(5-chloropicolinamido)-2-methylpropanamido)-1-isopropyl-5a,5b,8,8,11a-pentamethyl-2-oxo-3,3a,4,5,5a,5b,6,7,7a,8,9,10,11,11a,11b,12,13,13a-octadecahydro-2H-cyclopenta[a]chrysen-9-yl)oxy)carbonyl)-2,2-dimethylcyclobutane-1-carboxylic acid] were 881 µg·h/mL and 36600 ng/mL.

The values are drawn from patent publication US20170008921A1, “C-3 NOVEL TRITERPENONE WITH C-28 REVERSE AMIDE DERIVATIVES AS HIV INHIBITORS” (HETERO RESEARCH FOUNDATION, priority 2015, published 2017).
